Data from patent publication US11208387B2, “Macrocyclic broad spectrum antibiotics” (Genentech, Inc., priority 2019, dated 2021).
≈ marks a conversion by molar mass, not a printed value. Read-outs that look alike come from different tables or passages of the source.

Tests used:
Assay in all cases: Serum MIC, broth micro-dilution
Type in all cases: cell-based
[1] = system: Acinetobacter baumannii ATCC 17978; settings: Acinetobacter baumannii
Experimental: (§1) In vitro antimicrobial activity of each compound was determined by measuring minimal inhibitor concentrations (MICs) using the broth micro-dilution technique as approved by the Clinical and Laboratory Standards Institute (CLSI) (Methods for Dilution Antimicrobial Susceptibility Tests for Bacteria that Grow Aerobically; Approved Standard—Eighth Edition. CLSI document M07-A8. Wayne, Pa.: Clinical and Laboratory Standards; 2009). Antibacterial activity was measure against Escherichia coli strain ATCC 25922 (E. coli), Klebsiella pneumoniae ATCC 700603 (K. pneumoniae), Acinetobacter baumannii ATCC 17978 (A. baumannii), and Pseudomonas aeruginosa PA01 (P. aeruginosa), each of which is representative of a clinically relevant Gram-negative species. Cells were inoculated onto plates of Mueller Hinton Agar and grown at 37° C. for 16-18 hours. Inocula suspensions were prepared by scraping cells into 1 mL of testing media (Mueller Hinton II cation adjusted Broth) and diluting to a final OD 600 nm of 0.01.
(§2) Test compounds were prepared in DMSO at a concentration of […]. The compounds were tested under several different dilution formats. In protocol 1, the compound stocks were diluted into testing media at a concentration of 64 μg/ml and serial 2-fold dilutions were made in the same media, in 96-well U bottom microtiter dishes, for a total of 10 compound concentrations. In protocol 2, the compound stocks were diluted into testing media at a concentration of 4 μg/mL and serial 2-fold dilutions were made in the same media, in 96-well U bottom microtiter dishes, for a total of 10 compound concentrations. In protocol 3, compound stocks were diluted into testing media at a concentration of 0.5 μg/mL, with serial 2-fold dilutions conducted as described above. In protocol 4, compound stocks were diluted into testing media at a concentration of 0.13 μg/mL, with serial 2-fold dilutions conducted as described above. Inocula suspensions were added to the 2-fold serial dilutions of test compounds to a final density of OD 600 nm of 0.0005 and incubated at 35° C. for 22 hours. […] To assess antimicrobial activity in the presence of plasma proteins, MICs were also determined in growth media supplemented with 50% serum. Bacterial inocula and test compound dilution plates were prepared using the same protocol as described above for the standard MICs assay, with the exception that a mixture of 50% v/v Mueller Hinton II cation adjusted Broth and 50% v/v mouse sterile filtered serum (Equitech-Bio) was used in place of 100% Mueller Hinton II cation adjusted Broth. The results are listed in Table 3 (MIC, IC50 values micromolar).

[2] = system: Escherichia coli strain ATCC 25922; settings: Escherichia coli, read-out: E. coli 25922 Serum MIC
Experimental: as §1, §2

[3] = system: Pseudomonas aeruginosa PA01; settings: Pseudomonas aeruginosa, read-out: P. aeruginosa 01 Serum MIC
Experimental: as §1, §2

[4] = system: Klebsiella pneumoniae ATCC 700603; settings: Klebsiella pneumoniae, read-out: K pneumoniae 700603 Serum MIC
Experimental: as §1, §2

[5] = ATCC17978, 22 h, read-out: A. baumanii 17978 Serum MIC
[6] = ATCC17978, 22 h, read-out: Acinetobacter baumanii 17978 Serum MIC
[7] = ATCC17978, 50% v/v mouse serum in Mueller Hinton II cation adjusted Broth, 35° C., 22 hours, Table 4, read-out: A. baumanii 17978 Serum MIC
[8] = ATCC17978, 50% v/v mouse serum in Mueller Hinton II cation adjusted Broth, 35° C., 22 hours, Table 5, read-out: Acinetobacter baumanii 17978 Serum MIC
[9] = ATCC25922, 50% v/v mouse serum in Mueller Hinton II cation adjusted Broth, 35° C., 22 hours, Table 4
[10] = PA01, 50% v/v mouse serum in Mueller Hinton II cation adjusted Broth, 35° C., 22 hours, Table 4
[11] = ATCC700603, 50% v/v mouse serum in Mueller Hinton II cation adjusted Broth, 35° C., 22 hours, Table 4

Compound: Cc1nc(-c2ccc(OC(C)C)cc2)ncc1C(=O)N[C@@H](CNS(N)(=O)=O)C(=O)N(C)[C@@H]1C(=O)N[C@@H](C)C(=O)N[C@H](C(=O)O)Cc2ccc(OC[C@H](O)CN)c(c2)-c2cc1cc(OC[C@H](O)CN)c2O [Example 14, (8S,11S,14S)-18-hydroxy-11-methyl-14-[methyl-[(2S)-2-[[2-(4-isopropoxy-phenyl)-4-methyl-pyrimidine-5-carbonyl]amino]-3-(sulfamoylamino)-propanoyl]amino]-10,13-dioxo-3,17-bis[(2R)-3-amino-2-hydroxy-propoxy]-9,12-diazatricyclo-[13.3.1.12,6]icosa-1(18),2(20),3,5,15(19), 16-hexaene-8-carboxylic acid]
- MIC [1, 5]: 32 µM (≈ 31.8 µg/mL)
- MIC [1, 6]: 32 µM (≈ 31.8 µg/mL)
- MIC ([2]; ATCC25922, 22 h): 1.5 µM (≈ 1.49 µg/mL)
- MIC ([3]; PA01, 22 h): 48 µM (≈ 47.8 µg/mL)
- MIC ([4]; ATCC700603, 22 h): 2 µM (≈ 1.99 µg/mL)

Compound: Cc1nc(-c2ccc(C3(C)CC3)cc2)nc(C)c1C(=O)N[C@@H](CNS(N)(=O)=O)C(=O)N(C)[C@@H]1C(=O)N[C@@H](C)C(=O)N[C@H](C(=O)O)Cc2ccc(OC[C@H](O)CN)c(c2)-c2cc1cc(OC[C@H](O)CN)c2O [Example 15, (8S,11S,14S)-18-hydroxy-11-methyl-14-[methyl-[(2S)-2-[[4,6-dimethyl-2-[4-(1-methylcyclo-propyl)phenyl]-pyrimidine-5-carbonyl]amino]-3-(sulfamoylamino)-propanoyl]amino]-10,13-dioxo-3,17-bis[(2R)-3-amino-2-hydroxy-propoxy]-9,12-diazatricyclo-[13.3.1.12,6]icosa-1(18),2(20),3,5,15(19), 16-hexaene-8-carboxylic acid]
- MIC [1, 7]: 8 µM (≈ 8.04 µg/mL)
- MIC [1, 8]: 8 µM (≈ 8.04 µg/mL)
- MIC [2, 9]: 0.5 µM (≈ 0.503 µg/mL)
- MIC [3, 10]: 8 µM (≈ 8.04 µg/mL)
- MIC [4, 11]: 0.5 µM (≈ 0.503 µg/mL)

Compound: C[C@@H]1NC(=O)[C@@H](N(C)C(=O)[C@H](CCN)NC(=O)c2cnn(-c3ccc(C(C)(C)C)cc3)c(=O)c2)c2cc(OC[C@H](O)CN)c(O)c(c2)-c2cc(ccc2OC[C@H](O)CN)C[C@@H](C(=O)O)NC1=O [Example 17, (8S,11S,14S)-18-hydroxy-11-methyl-14-[methyl-[(2S)-4-amino-2-[[1-(4-tert-butylphenyl)-6-oxo-pyridazine-4-carbonyl]amino]-butanoyl]amino]-10,13-dioxo-3,17-bis[(2R)-3-amino-2-hydroxy-propoxy]-9,12-diazatricyclo-[13.3.1.12,6]icosa-1(18),2(20),3,5,15(19), 16-hexaene-8-carboxylic acid]
- MIC [1, 5]: 16 µM (≈ 14.9 µg/mL)
- MIC [1, 6]: 16 µM (≈ 14.9 µg/mL)
- MIC ([2]; ATCC25922, 22 h): 1 µM (≈ 0.93 µg/mL)
- MIC ([3]; PA01, 22 h): 64 µM (≈ 59.5 µg/mL)
- MIC ([4]; ATCC700603, 22 h): 1 µM (≈ 0.93 µg/mL)

Compound: Cc1nc(-c2ccc(C3(C)CC3)cc2)nc(N)c1C(=O)N[C@@H](CCN)C(=O)N(C)[C@@H]1C(=O)N[C@@H](C)C(=O)N[C@H](C(=O)O)Cc2ccc(OC[C@H](O)CN)c(c2)-c2cc1cc(OC[C@H](O)CN)c2O [Example 21]
- MIC [1, 7]: 16 µM (≈ 15.1 µg/mL)
- MIC [1, 8]: 16 µM (≈ 15.1 µg/mL)
- MIC [2, 9]: 0.38 µM (≈ 0.358 µg/mL)
- MIC [3, 10]: 48 µM (≈ 45.2 µg/mL)
- MIC [4, 11]: 0.25 µM (≈ 0.235 µg/mL)

Compound: C[C@@H]1NC(=O)[C@@H](N(C)C(=O)[C@H](CCN)NC(=O)c2cnn(-c3ccc(OCCC(C)(C)C)cc3)c(=O)c2)c2cc(OC[C@H](O)CN)c(O)c(c2)-c2cc(ccc2OC[C@H](O)CN)C[C@@H](C(=O)O)NC1=O [Example 22, (8S,11S,14S)-18-hydroxy-11-methyl-14-[methyl-[(2S)-4-amino-2-[[1-[4-(3,3-dimethylbutoxy)-phenyl]-6-oxo-pyridazine-4-carbonyl]amino]-butanoyl]amino]-10,13-dioxo-3,17-bis[(2R)-3-amino-2-hydroxy-propoxy]-9,12-diazatricyclo-[13.3.1.12,6]icosa-1(18),2(20),3,5,15(19), 16-hexaene-8-carboxylic acid]
- MIC [1, 7]: 32 µM (≈ 31.2 µg/mL)
- MIC [1, 8]: 32 µM (≈ 31.2 µg/mL)
- MIC [2, 9]: 1 µM (≈ 0.974 µg/mL)
- MIC [3, 10]: 32 µM (≈ 31.2 µg/mL)
- MIC [4, 11]: 0.5 µM (≈ 0.487 µg/mL)

Compound: Cc1nc(N2CCC(C(C)(C)C)CC2)nc(N)c1C(=O)N[C@@H](CCN)C(=O)N(C)[C@@H]1C(=O)N[C@@H](C)C(=O)N[C@H](C(=O)O)Cc2ccc(OC[C@H](O)CN)c(c2)-c2cc1cc(OC[C@H](O)CN)c2O [Example 25, (8S,11S,14S)-18-hydroxy-11-methyl-14-[methyl-[(2S)-4-amino-2-[[4-amino-2-(4-tert-butyl-1-piperidyl)-6-methyl-pyrimidine-5-carbonyl]amino]-butanoyl]amino]-10,13-dioxo-3,17-bis[(2R)-3-amino-2-hydroxy-propoxy]-9,12-diazatricyclo-[13.3.1.12,6]icosa-1(18),2(20),3,5,15(19), 16-hexaene-8-carboxylic acid]
- MIC [1, 7]: 16 µM (≈ 15.2 µg/mL)
- MIC [1, 8]: 16 µM (≈ 15.2 µg/mL)
- MIC [2, 9]: 1 µM (≈ 0.95 µg/mL)
- MIC [3, 10]: 64 µM (≈ 60.8 µg/mL)
- MIC [4, 11]: 0.5 µM (≈ 0.475 µg/mL)

Compound: C[C@@H]1NC(=O)[C@@H](N(C)C(=O)[C@H](CCN)NC(=O)c2cnn(-c3ccc(OC4CCCCC4)cc3)c(=O)c2)c2cc(OC[C@H](O)CN)c(O)c(c2)-c2cc(ccc2OC[C@H](O)CN)C[C@@H](C(=O)O)NC1=O [Example 26, (8S,11S,14S)-18-hydroxy-11-methyl-14-[methyl-[(2S)-4-amino-2-[[1-[4-(cyclohexoxy)phenyl]-6-oxo-pyridazine-4-carbonyl]amino]-butanoyl]amino]-10,13-dioxo-3,17-bis[(2R)-3-amino-2-hydroxy-propoxy]-9,12-diazatricyclo-[13.3.1.12,6]icosa-1(18),2(20),3,5,15(19), 16-hexaene-8-carboxylic acid]
- MIC [1, 7]: 24 µM (≈ 23.3 µg/mL)
- MIC [1, 8]: 24 µM (≈ 23.3 µg/mL)
- MIC [2, 9]: 1 µM (≈ 0.972 µg/mL)
- MIC [3, 10]: 64 µM (≈ 62.2 µg/mL)
- MIC [4, 11]: 0.75 µM (≈ 0.729 µg/mL)

Compound: C[C@@H]1NC(=O)[C@@H](N(C)C(=O)[C@H](CCN)NC(=O)c2cnn(-c3ccc(C4(C)CC4)cc3)c(=O)c2)c2cc(OC[C@H](O)CN)c(O)c(c2)-c2cc(ccc2OC[C@H](O)CN)C[C@@H](C(=O)O)NC1=O [Example 29, (8S,11S,14S)-18-hydroxy-11-methyl-14-[methyl-[(2S)-4-amino-2-[[1-[4-(1-methylcyclopropyl)-phenyl]-6-oxo-pyridazine-4-carbonyl]amino]-butanoyl]amino]-10,13-dioxo-3,17-bis[(2R)-3-amino-2-hydroxy-propoxy]-9,12-diazatricyclo-[13.3.1.12,6]icosa-1(18),2(20),3,5,15(19), 16-hexaene-8-carboxylic acid]
- MIC [1, 7]: 32 µM (≈ 29.7 µg/mL)
- MIC [1, 8]: 32 µM (≈ 29.7 µg/mL)
- MIC [2, 9]: 2.7 µM (≈ 2.51 µg/mL)
- MIC [3, 10]: 64 µM (≈ 59.4 µg/mL)
- MIC [4, 11]: 1.8 µM (≈ 1.67 µg/mL)

Compound: Cc1nc(-c2ccc(C(C)(C)C)cc2)ncc1C(=O)N[C@@H](CN)C(=O)N(C)[C@@H]1C(=O)N[C@@H](C)C(=O)N[C@H](C(=O)O)Cc2ccc(OC[C@H](O)CN)c(c2)-c2cc1cc(OC[C@H](O)CN)c2O [Example 31, (8S,11S,14S)-18-hydroxy-11-methyl-14-[methyl-[(2S)-3-amino-2-[[2-(4-tert-butylphenyl)-4-methyl-pyrimidine-5-carbonyl]amino]-propanoyl]amino]-10,13-dioxo-3,17-bis[(2R)-3-amino-2-hydroxy-propoxy]-9,12-diazatricyclo-[13.3.1.12,6]icosa-1(18),2(20),3,5,15(19), 16-hexaene-8-carboxylic acid]
- MIC [1, 7]: 32 µM (≈ 29.2 µg/mL)
- MIC [1, 8]: 32 µM (≈ 29.2 µg/mL)
- MIC [2, 9]: 1 µM (≈ 0.914 µg/mL)
- MIC [3, 10]: 48 µM (≈ 43.9 µg/mL)
- MIC [4, 11]: 0.75 µM (≈ 0.686 µg/mL)
